CLint scaled and half-life data for one compound are collected here from EP4748841A1, “BICYCLO[5,6] IMIDAZOLE PYRIMIDONE DERIVATIVE AND PREPARATION METHOD THEREFOR AND USE THEREOF” (Shujing Biopharma Co., Ltd, priority 2023, dated 2025).

What is called half-life is the time in which the quantity being followed falls by half.

Assay type in all cases: in vitro ADME
Data set [1] is described as follows: Liver microsome stability experiment (beagle dog). The conditions noted are these: for CLint scaled at 1 µM: beagle, dog, liver microsomes, pH 7.4, Beagle dog liver microsomes. How it is done:
(§1) This experiment aimed to evaluate the phase I metabolic stability of the compounds of the present disclosure in liver microsomes of SD rats, beagle dogs, cynomolgus monkeys, and humans.
(§2) • (1) Buffer preparation: 73.21 g of dipotassium hydrogen phosphate trihydrate and 10.78 g of potassium dihydrogen phosphate were dissolved in 4000 mL of ultrapure water. The pH of the solution was adjusted to within 7.40 ± 0.10 using 10% phosphoric acid or 1 M potassium hydroxide, resulting in a final concentration of 100 mM. • (2) Solution preparation and dilution: Stock solutions of the test compounds at a concentration of 10 mM were prepared in dimethyl sulfoxide (DMSO) and stored at 4 °C, and they were diluted into 100 µM working solutions with pure acetonitrile when used. A stock solution of the control compound testosterone at a concentration of 10 mM was prepared in DMSO and stored at -20 °C, and it was diluted into a 400 µM working solution with pure acetonitrile when used. • (3) Termination solution preparation: The termination solution was an acetonitrile solution containing an internal standard (terfenadine). The prepared termination solution was stored in a refrigerator at 2-8 °C. • (4) Liver microsome solution preparation: Liver microsomes from various species (SD rat, beagle dog, cynomolgus monkey, and human) were diluted into 20× working solutions using 100 mM potassium phosphate buffer. The final concentration of the liver microsomes in the reaction system was 0.5 mg/mL. • (5) Reduced nicotinamide adenine dinucleotide phosphate (NADPH) regeneration system preparation: Appropriate amounts of nicotinamide adenine dinucleotide phosphate (NADP), glucose-6-phosphate (G6P), magnesium chloride (MgCl2), and glucose-6-phosphate dehydrogenase (G6PDH) were weighed to prepare stock solutions at concentrations of 65.33 mM, 330 mM, 300 mM, and 250 Units/mL, respectively. The four stock solutions described above were each added to an appropriate amount of buffer, and the mixture was mixed well by gently inverting up and down. The final concentrations of NADP, G6P, MgCl2, and G6PDH in the NADPH regeneration system were 2.65 mM, 10.2 mM, 6.12 mM, and 2.45 Units/mL, respectively. • (6) Incubation process: The incubation was completed in 96-well plates. Several incubation plates were prepared and named T0, T5, T10, T20, T40, T60, and NCF60, respectively. The first 6 plates corresponded to reaction time points of 0 min, 5 min, 10 min, 20 min, 40 min, and 60 min, respectively. The NCF60 plate was incubated for 60 min with potassium phosphate buffer replacing the NADPH regeneration system solution. Samples under all conditions were prepared in triplicate.
(§3) 2 µL of the test compound or control compound and 100 µL of microsome working solution (containing 1 mg/mL liver microsome protein) were added to each of the T0, T5, T10, T20, T40, T60, and NCF60 plates, and only the microsome working solution was added to the Blank 60 plate. The plates described above were then pre-incubated in a 37 °C water bath for about 10 min.
(§4) After the pre-incubation was completed, 98 µL of the NADPH regeneration system working solution was added to each sample well except for the NCF60 plate and the T0 plate to initiate the reaction, and 98 µL of potassium phosphate buffer was added to each well of the NCF60 plate. Therefore, for the sample wells containing the test sample or control substance working solution, the final concentrations of TC and testosterone in the reaction were 1 µM and 4 µM, respectively, the concentration of liver microsomes was 0.5 mg/mL, and the final concentrations of DMSO and acetonitrile in the reaction system were 0.01% (v/v) and 0.99% (v/v), respectively.
(§5) After incubation for an appropriate time (e.g., 5 min, 10 min, 20 min, 40 min, and 60 min), 600 µL of a termination solution (an acetonitrile solution containing 100 ng/mL […]) was added to each test compound sample well and control compound sample well to terminate the reaction. […]

Data set [2] can be described thus: Liver microsome stability experiment (human). The conditions noted are these: for CLint scaled at 1 µM: human, liver microsomes, pH 7.4, Human liver microsomes. How it is done:
as §1, §2, §3, §4, §5

Data set [3] in a line: Liver microsome stability experiment (SD rat). The conditions noted are these: for CLint scaled at 1 µM: SD, rat, liver microsomes, pH 7.4, SD rat liver microsomes. The procedure: as §1, §2, §3, §4, §5
On the technique in general: Liver microsomes are vesicles of endoplasmic reticulum, rich in cytochrome P450 enzymes.

Data set [4] can be described thus: Liver microsome stability experiment (cynomolgus monkey). The conditions noted are these: pH 7.4, Cynomolgus monkey liver microsomes, 0.5 mg/mL; for CLint scaled at 1 µM: cynomolgus monkey, liver microsomes. The procedure:
as §1, §2, §3, §4, §5

[5] abbreviates: 0.5 mg/mL, 1 µM, read-out: CL(liver).
Where [6] appears, read: 0.5 mg/mL, 1 µM, read-out: CLint(liver).
Where [7] appears, read: read-out: Clearance rate classification.

A value given as a limit tells only on which side of the number the result lay.

In the case of `COCCN1CCC(N(Cc2ccc(-c3ccc(C(F)(F)F)cc3)cc2)C(=O)Cn2c(SCc3cccc(F)c3F)cc(=O)c3ccccc32)CC1` [Rilapladib], the CLint scaled at 1 µM in data set [1] (setting [5]) is 8.8 mL/min/kg; in data set [1] (setting [6]), 12.4 mL/min/kg; in data set [1] (setting [7]), ≤ 13.2 mL/min/kg; in data set [2] (setting [5]) it was 15.4 mL/min/kg; in data set [2] (setting [6]) it was 60.3 mL/min/kg; in data set [2] (setting [7]), > 48.3 mL/min/kg. The CLint scaled at 1 µM in data set [3] (setting [5]) is < 10.8 mL/min/kg; in data set [3] (setting [6]), < 13.4 mL/min/kg; in data set [3] (setting [7]), ≤ 23.7 mL/min/kg; in data set [4] (read-out: CL(liver)) it was 39.8 mL/min/kg; in data set [4] (read-out: CLint(liver)) it was 461 mL/min/kg. For the same compound, the half-life at 1 µM in data set [1] (pH 7.4, Beagle dog liver microsomes, 0.5 mg/mL, 1 µM) is 162 min; in data set [2] (pH 7.4, Human liver microsomes, 0.5 mg/mL, 1 µM) it was 20.7 min; in data set [3] (pH 7.4, SD rat liver microsomes, 0.5 mg/mL, 1 µM), > 186 min; in data set [4], 4.06 min.
